# Reference: patent US7064120B2, “Tricyclic pyridyl carboxamides and derivatives thereof tocolytic oxytocin receptor antagonists” (Wyeth, priority 2001, dated 2006)
# Target: T1, human vasopressin V1a receptor subtype (Homo sapiens, UniProt P37288)
# T1 construct: host or cells: CHO cells, stably transfected (pZeoSV vector for the Thibonnier line)
# Assay: Vasopressin binding in CHO cell membranes expressing human vasopressin V1a subtype receptors ([3H]Manning ligand radioligand binding)
# Settings: 100 nM
# Procedure: Vasopressin Binding in Chinese Hamster Ovary Cell Membranes Expressing Human Vasopressin V1a Subtype Receptors
# The trypsin is removed by aspiration and the cells dislodged by tapping. Cell Culture medium (e.g. 30 mL for 1:30 split) is immediately added and mixed well to inactivate trypsin. 1 mL of detached cells is added to new culture flasks containing fresh cell culture medium (e.g., into 25 mL per T-150 flask), and mixed gently. The cells are incubated at 37° C. in 5% CO2. The medium is changed at 3 to 4 days interval (or as appropriate). […] All steps are done under sterile conditions.
# The cells are washed twice gently with Hank's Balanced Salt solution (e.g,. use 10 mL per T-150 flask). […] The contents are transferred to centrifuge tubes (50 mL) kept in an ice bath. All subsequent steps are done at 4° C. The tubes are centrifuged at 300×g for 15 min (1380 rpm on SORVAL, Model RT6000D, using the rotor for 50 mL tubes). The supernatant is discarded and the cells suspended in homogenizing buffer(10 mM Tris-HCl containing 0.25 M sucrose and 1 mM EDTA, pH 7.4) ensuring that the volume of the buffer is about ten times the volume of the cell pellet. The cells are pooled into a centrifuge tube (50 mL) and homogenized with Polytron at setting 6 for 10 sec. The homogenate is transferred into a Potter-Elvjehm homogenizer and homogenized with 3 strokes. The homogenate is centrifuged at 1500×g for 10 min at 4° C. (3100 rpm using SORVAL, model RT6000D, using the rotor for 50 mL tubes). The pellet is discarded. The supernatant is centrifuged at 100,000×g for 60 min. at 4° C. (Beckman L8-80M ultracentrifuge; spin at 37,500 rpm with rotor type 70 Ti for 50 mL tubes; 38,000 rpm with type 80Ti for 15 mL tubes; or 35,800 rpm with rotor type 45Ti). The supernantant is discarded and the pellet suspended in 3 to 4 mL of Tris buffer (50 mM TRIS-HCl, pH 7.4). The protein content is estimated by the Bradford or Lowry method. The volume of the membrane suspension is adjusted with the membrane buffer (50 mM Tris-HCl containing 0.1% BSA and 0.1 mM PMSF) to give 3.0 mg/mL (or as appropriate) of protein. The membranes are aliquoted and stored at −70° C.
# In wells of a 96-well format microtiter plate, is added 90, 110 or 130 μL (to make up a final volume of 200 μL) of assay buffer containing 50 mM of Tris-HCl (pH 7.4), BSA (heat inactivated, protease-free), […], 1 mg % aprotinin, 1 mg % leupeptin, 2 mg % 1,10-phenanthroline, 10 mg % trypsin inhibitor, and 0.1 mM PMSF. The inhibitors are added on the day of the experiment. The components are mixed at room temperature, and then kept in ice bath following adjustment of the pH to 7.4. […] 20 μL of 50% DMSO is added for Manning and other peptide ligands and the assay buffer volume is adjusted accordingly. To each well is added 50 μL of frozen membrane suspension thawed immediately prior to use and diluted in the assay buffer to the required concentration (equivalent to 25 to 50 μg of protein/well as needed). 20 μL of 8 nM [^3H]Manning ligand in the assay buffer, prepared just before use, is added, and incubated at room temperature for 60 min. shaking the plate on a mechanical shaker for the first 15 min. The incubation is stopped by rapid filtration of the plate contents followed by wash with ice-cold buffer (50 mM Tris-HCl, pH 7.4) using a cell harvester (Tomtek and Printed filtermat-B filter paper). The filter paper is thoroughly dried (7–12 min. in a microwave oven) and impregnated with MeltiLex B/H melt-on scintillation wax sheets and the radioactivity counted in a betaplate scintillation counter.
# Binding data is either reported as percent inhibition at a certain concentration or if an IC50 was calculated, as a nanomolar concentration.
# T1 sequence (P37288 whole entry): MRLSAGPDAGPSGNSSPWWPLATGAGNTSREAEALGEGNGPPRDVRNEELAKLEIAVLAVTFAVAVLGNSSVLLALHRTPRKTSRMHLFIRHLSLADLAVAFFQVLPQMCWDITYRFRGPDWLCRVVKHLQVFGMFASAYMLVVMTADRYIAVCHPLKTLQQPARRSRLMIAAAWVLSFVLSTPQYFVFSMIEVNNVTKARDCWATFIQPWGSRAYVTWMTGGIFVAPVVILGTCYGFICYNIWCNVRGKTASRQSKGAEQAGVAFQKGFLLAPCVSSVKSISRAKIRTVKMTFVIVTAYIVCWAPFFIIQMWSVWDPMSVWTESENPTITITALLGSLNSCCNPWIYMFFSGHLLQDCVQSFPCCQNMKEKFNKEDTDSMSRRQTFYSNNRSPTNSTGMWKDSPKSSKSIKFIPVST
row,Compound,inhibition at 0.1 µM [%]
1,"COc1ccccc1-c1ccc(C(=O)N2Cc3ccc(C(=O)NCc4ccccn4)n3Cc3ccccc32)cc1C [Example 24, 10-[(2′-Methoxy-2-methyl-[1,1′-biphenyl]-4-yl)carbonyl]-N-(2-pyridinylmethyl)-10,11-dihydro-5H-pyrrolo[2,1-c][1,4]benzodiazepine-3-carboxamide]",7
2,"COc1cccc(-c2ccc(C(=O)N3Cc4ccc(C(=O)NCc5ccccn5)n4Cc4ccccc43)cc2C)c1 [Example 25, 10-[(3′-Methoxy-2-methyl-[1,1′-biphenyl]-4-yl)carbonyl]-N-(2-pyridinylmethyl)-10,11-dihydro-5H-pyrrolo[2,1-c][1,4]benzodiazepine-3-carboxamide]",21
3,"COc1ccccc1-c1ccc(C(=O)N2Cc3ccc(C(=O)NCc4ccccn4)n3Cc3ccccc32)cc1 [Example 26, 10-[(2′-Methoxy-[1,1′-biphenyl]-4-yl)carbonyl]-N-(2-pyridinylmethyl)-10,11-dihydro-5H-pyrrolo[2,1-c][1,4]benzodiazepine-3-carboxamide]",17
4,"Cc1ccccc1-c1ccc(C(=O)N2Cc3ccc(C(=O)NCc4ccccn4)n3Cc3ccccc32)cc1 [Example 27, 10-[(2′-Methyl-[1,1′-biphenyl]-4-yl)carbonyl]-N-(2-pyridinylmethyl)-10,11-dihydro-5H-pyrrolo[2,1-c][1,4]benzodiazepine-3-carboxamide]",20
5,"COc1cc(C(=O)N2Cc3ccc(C(=O)NCc4ccccn4)n3Cc3ccccc32)ccc1-c1ccccc1C [Example 28, 10-[(2-Methoxy-2′-methyl-[1,1′-biphenyl]-4-yl)carbonyl]-N-(2-pyridinylmethyl)-10,11-dihydro-5H-pyrrolo[2,1-c][1,4]benzodiazepine-3-carboxamide]",28
6,"COc1cc(-c2ccccc2C)c(Cl)cc1C(=O)N1Cc2ccc(C(=O)NCc3ccccn3)n2Cc2ccccc21 [Example 29, 10-[(6-Chloro-3-methoxy-2′-methyl-[1,1′-biphenyl]-4-yl)carbonyl]-N-(2-pyridinylmethyl)-10,11-dihydro-5H-pyrrolo[2,1-c][1,4]benzodiazepine-3-carboxamide]",0
7,"COc1cccc(-c2cc(OC)c(C(=O)N3Cc4ccc(C(=O)NCc5ccccn5)n4Cc4ccccc43)cc2Cl)c1 [Example 30, 10-[(6-Chloro-3,3′-dimethoxy-[1,1′-biphenyl]-4-yl)carbonyl]-N-(2-pyridinylmethyl)-10,11-dihydro-5H-pyrrolo[2,1-c][1,4]benzodiazepine-3-carboxamide]",-7
8,"COc1cc(C(=O)N2Cc3ccc(C(=O)NCc4ccccn4)n3Cc3ccccc32)ccc1-c1cccc2ccccc12 [Example 31, 10-[3-Methoxy-4-(naphthalen-1-yl)benzoyl]-N-(2-pyridinylmethyl)-10,11-dihydro-5H-pyrrolo[2,1-c][1,4]benzodiazepine-3-carboxamide]",6
9,"COc1ccccc1-c1ccc(C(=O)N2Cc3ccc(C(=O)NCc4ccccn4)n3Cc3ccccc32)cc1OC [Example 32, 10-[(2,2′-Dimethoxy-[1,1′-biphenyl]-4-yl)carbonyl]-N-(2-pyridinylmethyl)-10,11-dihydro-5H-pyrrolo[2,1-c][1,4]benzodiazepine-3-carboxamide]",13
10,"COc1cccc(-c2ccc(C(=O)N3Cc4ccc(C(=O)NCc5ccccn5)n4Cc4ccccc43)cc2OC)c1 [Example 33, 10-[(2,3′-Dimethoxy-[1,1′-biphenyl]-4-yl)carbonyl]-N-(2-pyridinylmethyl)-10,11-dihydro-5H-pyrrolo[2,1-c][1,4]benzodiazepine-3-carboxamide]",23
11,"O=C(NCc1ccccn1)c1ccc2n1Cc1ccccc1N(C(=O)c1ccc(-c3cccc4ccccc34)cc1Cl)C2 [Example 34, 10-[2-Chloro-4-(naphthalen-1-yl)benzoyl]-N-(2-pyridinylmethyl)-10,11-dihydro-5H-pyrrolo[2,1-c][1,4]benzodiazepine-3-carboxamide]",5
12,"Cc1cc(C(=O)N2Cc3ccc(C(=O)NCc4ccccn4)n3Cc3ccccc32)ccc1-c1ccccc1C(F)(F)F [Example 35, 10-{[2-Methyl-2′-trifluoromethyl-[1,1′-biphenyl]-4-yl]carbonyl}-N-(2-pyridinylmethyl)-10,11-dihydro-5H-pyrrolo[2,1-c][1,4]benzodiazepine-3-carboxamide]",4
13,"COc1ccccc1-c1ccc(C(=O)N2Cc3ccc(C(=O)NCc4cccnc4)n3Cc3ccccc32)cc1C [Example 36, 10-[(2′-Methoxy-2-methyl-[1,1′-biphenyl]-4-yl)carbonyl]-N-(3-pyridinylmethyl)-10,11-dihydro-5H-pyrrolo[2,1-c][1,4]benzodiazepine-3-carboxamide]",-3
14,"Cc1ccccc1-c1ccc(C(=O)N2Cc3ccc(C(=O)NCc4cccnc4)n3Cc3ccccc32)cc1C [Example 37, 10-[(2,2′-Dimethyl-[1,1′-biphenyl]-4-yl)carbonyl]-N-(3-pyridinylmethyl)-10,11-dihydro-5H-pyrrolo[2,1-c][1,4]benzodiazepine-3-carboxamide]",12
15,"COc1cccc(-c2ccc(C(=O)N3Cc4ccc(C(=O)NCc5cccnc5)n4Cc4ccccc43)cc2C)c1 [Example 38, 10-[(3′-Methoxy-2-methyl-[1,1′-biphenyl]-4-yl)carbonyl]-N-(3-pyridinylmethyl)-10,11-dihydro-5H-pyrrolo[2,1-c][1,4]benzodiazepine-3-carboxamide]",0
16,"COc1ccccc1-c1ccc(C(=O)N2Cc3ccc(C(=O)NCc4cccnc4)n3Cc3ccccc32)cc1 [Example 39, 10-[(2′-Methoxy-[1,1′-biphenyl]-4-yl)carbonyl]-N-(3-pyridinylmethyl)-10,11-dihydro-5H-pyrrolo[2,1-c][1,4]benzodiazepine-3-carboxamide]",10
17,"Cc1ccccc1-c1ccc(C(=O)N2Cc3ccc(C(=O)NCc4cccnc4)n3Cc3ccccc32)cc1 [Example 40, 10-[(2′-Methyl-[1,1′-biphenyl]-4-yl)carbonyl]-N-(3-pyridinylmethyl)-10,11-dihydro-5H-pyrrolo[2,1-c][1,4]benzodiazepine-3-carboxamide]",15
18,"COc1cc(C(=O)N2Cc3ccc(C(=O)NCc4cccnc4)n3Cc3ccccc32)ccc1-c1ccccc1C [Example 41, 10-[(2-Methoxy-2′-methyl-[1,1′-biphenyl]-4-yl)carbonyl]-N-(3-pyridinylmethyl)-10,11-dihydro-5H-pyrrolo[2,1-c][1,4]benzodiazepine-3-carboxamide]",20
19,"COc1cc(-c2ccccc2C)c(Cl)cc1C(=O)N1Cc2ccc(C(=O)NCc3cccnc3)n2Cc2ccccc21 [Example 42, 10-[(6-Chloro-3-methoxy-2′-methyl-[1,1′-biphenyl]-4-yl)carbonyl]-N-(3-pyridinylmethyl)-10,11-dihydro-5H-pyrrolo[2,1-c][1,4]benzodiazepine-3-carboxamide]",-11
20,"COc1cccc(-c2cc(OC)c(C(=O)N3Cc4ccc(C(=O)NCc5cccnc5)n4Cc4ccccc43)cc2Cl)c1 [Example 43, 10-[(6-Chloro-3,3′-dimethoxy-[1,1′-biphenyl]-4-yl)carbonyl]-N-(3-pyridinylmethyl)-10,11-dihydro-5H-pyrrolo[2,1-c][1,4]benzodiazepine-3-carboxamide]",-6
